Results taken from publication PMC9225785, “Design, synthesis, and biological evaluation of a novel series of 2-(2,6-dioxopiperidin-3-yl)isoquinoline-1,3(2H,4H)-dione derivatives as cereblon modulators” (Journal of Enzyme Inhibition and Medicinal Chemistry, 2022).
Read-outs that look alike come from different tables or passages of the source.

Legend:
[1] = tested on: TNF-α; assay: TNF-α ELISA assay in LPS stimulated PBMC; type: cell-based, human; details: read-out: IC50 (μM ± SD) TNF-α
Method: Previous studies have reported IMiDs stimulate immunomodulatory activity main through the TNF-α inhibition[9]^,[10]. In this test, the effect of the synthesised compounds on TNF-α in LPS stimulated human peripheral blood mononuclear cell (PBMC) was evaluated (Table 1). The SAR of TNF-α inhibition was similar to the antiproliferative activity. […]
PBMC (4 × 10^5 cells) were incubated in the 96-well culture plate and stimulated by 2 µg/mL LPS. The level of TNF-α was checked by standard ELISA (R&D Systems, Minneapolis, MN). Analysis was performed by following the manufacture’s procedure for each ELISA kit. The test samples were assessed in triplicate and absorbance was taken on a Microplate Reader (ELx-800, BioTek Instruments, Winooski, VT) at 450 nm. The IC50 value for each compound was calculated by comparison with standard curves with purified recombinant TNF-α using GraphPad Prism 5.0 software (San Diego, CA).

[2] = PBMC toxicity by CCK8; type: cell-based, human; details: human, PBMCs isolated from healthy donors, CCK-8, 20.0 µM, relative to control cells; read-out: PBMC cell viability (%)
Method: (§1) And same time, the toxicity of the compounds on the normal human cell line PBMC was also tested by CCK8.
(§2) The NCI-H929 cells were cultured in RPMI-1640 media supplemented with 10% FBS, 100 U/mL penicillin–100 µg/mL streptomycin, and 0.05 mM 2-mercaptoethanol. The U2932 cells were cultured in RPMI-1640 media supplemented with 10% FBS and 100 U/mL penicillin–100 µg/mL streptomycin. The PBMCs were isolated from healthy donors.
(§3) For the cell proliferation experiments, 1.0 × 10^5 cells were first seeded in the 96-well culture plate and incubated overnight. Compounds tested were serially diluted in the corresponding media and then added to the well of 96-well plate in a final volume of 100 µL and then the cells were incubated for 72 h at 37 °C. Finally, 10 µL of CCK-8 was added to each well for 1–4 h, and the absorbance values were read at 450 nm in a Microplate Reader (ELx-800, BioTek Instruments, Winooski, VT). The IC50 value for each compound was calculated at the basis of the number of viable cells using GraphPad Prism 5.0 software (San Diego, CA).

[3] = tested on: U2932 cells; assay: CCK8 antiproliferative assay, U2932; details: Homo sapiens, U2932, 72 h, read-out: IC50 (μM ± SD) U2932
[4] = tested on: NCI-H929 cells; assay: CCK8 antiproliferative assay, NCI-H929; details: Homo sapiens, NCI-H929, 72 h, read-out: IC50 (μM ± SD) NCI-H929
[5] = tested on: NCI-H929 cells; assay: Annexin V-FITC/PI apoptosis assay; type: cell-based; details: for B1: necrotic cells / B2: late apoptosis / B3: live cells / B4: early apoptosis: 72 h; for apoptotic events: 72 h (early + late apoptosis)
Method: The IMiDs were reported to induce apoptosis through activation of caspase 8 in MM cells. Accordingly, the ability of the selected compound 10a to induce apoptosis in NCI-H929 cells was investigated using annexin V fluorescein isothiocyanate (FITC)/propidium iodide (PI) staining assay.
(§4) Flow cytometry was used to analyse effects of the compounds tested on cell cycle (PI staining) and apoptosis (Annexin V-FITC and PI staining). Stained cells were analysed on a Flow Cytometer (BD Biosciences, Franklin Lakes, NJ), and the data were analysed using the Cell Quest software.

[6] = biological target: T1, CRBN (His-tagged CRBN-DDB1 complex) (Homo sapiens, UniProt Q96SW2); assay: TR-FRET CRBN binding assay (displacement of Cy5-labeled thalidomide)
T1 construct: purchased Abcam ab235611
T1 sequence (Q96SW2 whole entry): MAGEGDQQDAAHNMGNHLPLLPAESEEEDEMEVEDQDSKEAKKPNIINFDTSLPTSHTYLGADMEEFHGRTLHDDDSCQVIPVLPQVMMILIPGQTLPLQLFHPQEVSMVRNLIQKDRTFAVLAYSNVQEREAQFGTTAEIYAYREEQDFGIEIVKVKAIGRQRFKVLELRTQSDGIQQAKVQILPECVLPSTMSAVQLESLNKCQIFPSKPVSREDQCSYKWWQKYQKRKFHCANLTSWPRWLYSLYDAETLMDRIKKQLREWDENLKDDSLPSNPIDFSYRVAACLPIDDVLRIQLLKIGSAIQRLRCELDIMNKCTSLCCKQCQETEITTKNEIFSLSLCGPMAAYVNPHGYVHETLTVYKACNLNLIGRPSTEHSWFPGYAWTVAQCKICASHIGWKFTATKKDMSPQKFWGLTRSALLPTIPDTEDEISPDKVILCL
T1 sequence (Q16531 whole entry partner): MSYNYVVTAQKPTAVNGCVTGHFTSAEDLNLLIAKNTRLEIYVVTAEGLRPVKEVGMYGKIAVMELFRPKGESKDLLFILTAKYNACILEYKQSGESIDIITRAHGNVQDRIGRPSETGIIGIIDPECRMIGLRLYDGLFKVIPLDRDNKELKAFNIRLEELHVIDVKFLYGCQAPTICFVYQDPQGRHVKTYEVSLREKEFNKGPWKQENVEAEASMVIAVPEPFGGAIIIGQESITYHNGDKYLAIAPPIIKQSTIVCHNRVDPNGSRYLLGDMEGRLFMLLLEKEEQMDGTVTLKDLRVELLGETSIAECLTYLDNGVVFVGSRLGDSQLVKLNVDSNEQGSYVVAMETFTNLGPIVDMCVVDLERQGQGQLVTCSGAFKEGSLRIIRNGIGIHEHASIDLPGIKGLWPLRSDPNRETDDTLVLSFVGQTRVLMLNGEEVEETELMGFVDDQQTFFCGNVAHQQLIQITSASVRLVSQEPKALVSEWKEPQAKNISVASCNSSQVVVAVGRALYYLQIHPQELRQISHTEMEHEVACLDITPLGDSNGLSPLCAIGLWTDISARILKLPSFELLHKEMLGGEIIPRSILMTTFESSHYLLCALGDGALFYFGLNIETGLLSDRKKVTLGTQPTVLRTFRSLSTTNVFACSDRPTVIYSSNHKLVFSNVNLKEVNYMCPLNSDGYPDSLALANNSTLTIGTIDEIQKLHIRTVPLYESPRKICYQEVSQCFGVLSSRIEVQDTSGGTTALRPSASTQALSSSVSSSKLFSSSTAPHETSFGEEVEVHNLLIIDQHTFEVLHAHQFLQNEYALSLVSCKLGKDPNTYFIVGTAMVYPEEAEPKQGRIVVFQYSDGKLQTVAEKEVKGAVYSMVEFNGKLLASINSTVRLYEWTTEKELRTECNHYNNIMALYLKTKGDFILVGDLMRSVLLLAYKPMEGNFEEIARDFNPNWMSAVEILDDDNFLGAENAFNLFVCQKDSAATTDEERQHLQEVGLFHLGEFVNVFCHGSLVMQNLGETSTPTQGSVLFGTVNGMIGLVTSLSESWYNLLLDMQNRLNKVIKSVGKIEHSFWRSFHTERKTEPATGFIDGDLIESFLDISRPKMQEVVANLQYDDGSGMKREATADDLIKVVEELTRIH
Method: His-tagged CRBN-DDB1 complex (Abcam, Cambridge, UK, catalogue no. ab235611) 60 nM was mixed with Eu-anti-His Tag antibody 3 nM (Thermo Fisher, Waltham, MA, catalogue no. PV5596) in a final buffer containing 20 mM HEPES pH 7.0, 150 mM NaCl, and 0.005% Tween-20. The solution was then mixed with Cy5-labeled thalidomide 10 nM and various concentrations of compounds, and then was incubated at room temperature for 1 h. FRET signals were measured on an EnVision plate reader by exciting at 340 nm and recording emission at both 615 nm (no FRET control) and 665 nm (FRET signals) with a 60 µs delay. […] Quantitative loss of FRET efficiency as a function of compound concentrations was fitted by GraphPad Prism 5.0 (San Diego, CA) and calculated the IC50.

[7] = tested on: PBMC; assay: PBMC toxicity by CCK8; type: cell-based, human
Method: as §1, §2, §3

[8] = biological target: T2, IKZF1 (Homo sapiens, UniProt Q13422+Q96SW2); assay: Immunoblot analysis of IKZF1 degradation in NCI-H929 cells; type: cell-based; details: for IKZF1 degradation: 72 h, immunoblot
T2 construct: endogenous in cells; host or cells: NCI-H929
T2 sequence (Q13422 whole entry): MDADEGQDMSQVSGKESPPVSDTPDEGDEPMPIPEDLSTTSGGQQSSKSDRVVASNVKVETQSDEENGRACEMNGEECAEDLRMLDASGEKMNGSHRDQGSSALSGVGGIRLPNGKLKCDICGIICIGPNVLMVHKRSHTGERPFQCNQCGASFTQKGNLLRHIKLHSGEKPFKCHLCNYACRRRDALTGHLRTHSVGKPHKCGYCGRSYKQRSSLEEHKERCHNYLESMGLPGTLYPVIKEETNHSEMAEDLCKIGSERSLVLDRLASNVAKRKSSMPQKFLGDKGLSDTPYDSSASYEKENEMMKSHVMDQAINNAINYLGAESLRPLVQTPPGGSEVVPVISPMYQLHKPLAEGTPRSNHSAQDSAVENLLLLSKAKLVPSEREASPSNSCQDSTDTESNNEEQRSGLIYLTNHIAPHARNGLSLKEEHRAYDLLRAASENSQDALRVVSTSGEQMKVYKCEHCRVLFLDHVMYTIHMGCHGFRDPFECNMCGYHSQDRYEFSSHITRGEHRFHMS
T2 sequence (Q96SW2 whole entry): as the sequence (Q96SW2 whole entry) above
T2 sequence (Q16531 whole entry partner): as the sequence (Q16531 whole entry partner) above
Method: (§5) Subsequent proteasome degradation of these transcription factors kills MM cells. Accordingly, we used the immunoblot assay to measure the IKZF1 and IKZF3 proteins degradation in the current study.
(§6) For immunoblot analysis, NCI-H929 cells were treated with the tested compounds at the indicated concentrations for various times, collected, and lysed in RIPA buffer in the presence of protease inhibitors on ice for 30 min. The protein from each sample was quantitated using a BCA protein assay kit, and was separated by SDS-PAGE and then transferred onto the PVDF membrane. The membranes were probed with specific primary antibodies at 4 °C overnight, followed by incubation with IRDye®680 goat anti-mouse secondary antibodies. The signals were acquired using the Odyssey Infrared Imaging System (LI-COR, Lincoln, NE).

[9] = biological target: T3, IKZF3 (Homo sapiens, UniProt Q96SW2+Q9UKT9); assay: Immunoblot analysis of IKZF3 degradation in NCI-H929 cells; type: cell-based; details: for IKZF3 degradation: 72 h, immunoblot
T3 construct: endogenous in cells; host or cells: NCI-H929
T3 sequence (Q9UKT9 whole entry): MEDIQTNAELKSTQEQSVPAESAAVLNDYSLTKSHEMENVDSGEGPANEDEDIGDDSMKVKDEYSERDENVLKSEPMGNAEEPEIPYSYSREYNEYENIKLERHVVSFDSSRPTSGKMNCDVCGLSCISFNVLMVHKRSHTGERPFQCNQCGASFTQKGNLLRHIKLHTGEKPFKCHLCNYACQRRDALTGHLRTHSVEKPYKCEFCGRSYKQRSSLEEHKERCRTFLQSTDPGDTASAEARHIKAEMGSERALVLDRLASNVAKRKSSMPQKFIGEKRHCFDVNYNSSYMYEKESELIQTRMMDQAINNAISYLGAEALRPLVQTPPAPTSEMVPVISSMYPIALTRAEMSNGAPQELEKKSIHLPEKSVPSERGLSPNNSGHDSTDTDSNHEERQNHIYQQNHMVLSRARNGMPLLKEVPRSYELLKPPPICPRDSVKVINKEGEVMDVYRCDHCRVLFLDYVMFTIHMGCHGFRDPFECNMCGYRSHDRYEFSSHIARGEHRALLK
T3 sequence (Q96SW2 whole entry): as the sequence (Q96SW2 whole entry) above
T3 sequence (Q16531 whole entry partner): as the sequence (Q16531 whole entry partner) above
Method: as §5, §6

[10] = tested on: NCI-H929 cells; assay: Cell cycle analysis (PI staining, flow cytometry); type: cell-based; details: 48 h; for cell cycle arrest: NCI-H929, 0.5-5.0 µM
Method: The NCI-H929 cells were treated with each of the compounds at 0, 0.5, 1.0, and 5.0 µM for 48 h. Following this treatment, the PI-stained cells were analysed and the results are outlined in Figure 5.
as §4

[11] = TNF-α level in LPS stimulated human PBMC, ELISA
[12] = NCI-H929, indicated concentrations
[13] = NCI-H929, 100 nM bortezomib in combination with compound 10a (10 µM)

| SMILES | IC50 [1, 11] | IC50 [4] | viability at 72 h, 20 µM [2] | IC50 [3] | other results |
| --- | --- | --- | --- | --- | --- |
| COc1ccc2c(c1)C(=O)N(C1CCC(=O)NC1=O)C(=O)C2(C)C (stereo not shown) [Compound 3c, 2-(2,6-Dioxopiperidin-3-yl)-7-methoxy-4,4-dimethylisoquinoline-1,3(2H,4H)-dione] | > 50 µM | > 50 µM | 100% | > 50 µM | – |
| O=C1CCC(N2C(=O)Cc3cccc([N+](=O)[O-])c3C2=O)C(=O)N1 (stereo not shown) [Compound 9a, 2-(2,6-dioxopiperidin-3-yl)-8-nitroisoquinoline-1,3(2H,4H)-dione] | 5.48 ± 1.04 µM | 9.26 ± 0.56 µM | 94% | 12.2 ± 0.58 µM | – |
| Nc1cccc2c1CN(C1CCC(=O)NC1=O)C2=O (stereo not shown) [Lenalidomide, reference compound] | – | 1.12 ± 0.06 µM | 86% | 3.24 ± 0.11 µM | B1: necrotic cells ([5]; NCI-H929, 1 μM): 0.2%; B2: late apoptosis ([5]; NCI-H929, 1 μM): 18.1%; B3: live cells ([5]; NCI-H929, 1 μM): 68.6%; B4: early apoptosis ([5]; NCI-H929, 1 μM): 13.1%; apoptotic events ([5]; NCI-H929, 1 µM): 31.2%; B1: necrotic cells ([5]; NCI-H929, 5 μM): 0.1%; B2: late apoptosis ([5]; NCI-H929, 5 μM): 20.8%; B3: live cells ([5]; NCI-H929, 5 μM): 56.0%; B4: early apoptosis ([5]; NCI-H929, 5 μM): 23.1%; apoptotic events ([5]; NCI-H929, 5 µM): 43.9%; IC50 ([1]; Homo sapiens, PBMC): 0.13 ± 0.02 µM; cell cycle arrest [10]: induce G0/G1 cell cycle arrest |
| COc1ccc2c(c1)C(=O)N(C1CCC(=O)NC1=O)C(=O)C2 (stereo not shown) [Compound 3b, 2-(2,6-Dioxopiperidin-3-yl)-7-methoxyisoquinoline-1,3(2H,4H)-dione] | 43.8 ± 1.88 µM | 28.2 ± 0.92 µM | 98% | 36.4 ± 1.22 µM | – |
| CC(C)C[C@H](NC(=O)[C@H](Cc1ccccc1)NC(=O)c1cnccn1)B(O)O [bortezomib, reference compound] | – | – | – | – | effect on IKZF1 degradation induced by compound 10a [8, 13]: can block the degradation; effect on IKZF3 degradation induced by compound 10a [9, 13]: can block the degradation |
| O=C1CCC(N2C(=O)Cc3ccccc3C2=O)C(=O)N1 (stereo not shown) [Compound 3a, 2-(2,6-dioxopiperidin-3-yl)isoquinoline-1,3(2H,4H)-dione] | > 50 µM | 32.2 ± 1.42 µM | 99% | > 50 µM | – |

Second part, led by results:

| IC50 [1, 11] | IC50 [4] | SMILES | viability at 72 h, 20 µM [2] | IC50 [3] | other results |
| --- | --- | --- | --- | --- | --- |
| > 50 µM | > 50 µM | Nc1cccc2c1CC(=O)N(C1CCC(=O)NC1=O)C2=O (stereo not shown) [Compound 10d, 5-Amino-2–(2,6-dioxopiperidin-3-yl)isoquinoline-1,3(2H,4H)-dione] | 99% | > 50 µM | – |
| 0.76 ± 0.08 µM | 2.25 ± 0.09 µM | Nc1cccc2c1C(=O)N(C1CCC(=O)NC1=O)C(=O)C2 (stereo not shown) [Compound 10a, 8-amino-2-(2,6-dioxopiperidin-3-yl)isoquinoline-1,3(2H,4H)-dione] | 94% | 5.86 ± 0.12 µM | B1: necrotic cells ([5]; NCI-H929, 1 μM): 0.1%; B2: late apoptosis ([5]; NCI-H929, 1 μM): 15.6%; B3: live cells ([5]; NCI-H929, 1 μM): 70.4%; B4: early apoptosis ([5]; NCI-H929, 1 μM): 13.9%; apoptotic events ([5]; NCI-H929, 1 µM): 29.5%; B1: necrotic cells ([5]; NCI-H929, 5 μM): 0.2%; B2: late apoptosis ([5]; NCI-H929, 5 μM): 21.3%; B3: live cells ([5]; NCI-H929, 5 μM): 65.1%; B4: early apoptosis ([5]; NCI-H929, 5 μM): 13.3%; apoptotic events ([5]; NCI-H929, 5 µM): 34.6%; IC50 [6]: 4.83 µM; toxicity to normal human cell line PBMC ([7]; CCK8, 20 µM): nearly no toxicity; PBMC cell viability (%) ([7]; CCK-8, 20.0 µM, relative to control cells, 20 µM): 99%; IKZF1 degradation ([8]; NCI-H929, 10 µM): completely degrade; IKZF1 degradation [8, 12]: induced the degradation; IKZF3 degradation ([9]; NCI-H929, 10 µM): completely degrade; IKZF3 degradation [9, 12]: induced the degradation; cells in G0/G1 cell cycle ([10]; NCI-H929, 5.0 µM): 42.9%; cell cycle arrest [10]: induce G0/G1 cell cycle arrest |
| 21.3 ± 1.26 µM | 16.3 ± 0.56 µM | Nc1ccc2c(c1)C(=O)N(C1CCC(=O)NC1=O)C(=O)C2 (stereo not shown) [Compound 10b, 7-Amino-2-(2,6-dioxopiperidin-3-yl)isoquinoline-1,3(2H,4H)-dione] | 98% | 20.6 ± 0.82 µM | – |
| > 50 µM | > 50 µM | CC1(C)C(=O)N(C2CCC(=O)NC2=O)C(=O)c2c(N)cccc21 (stereo not shown) [Compound 12a, 8-Amino-2–(2,6-dioxopiperidin-3-yl)-4,4-dimethylisoquinoline-1,3(2H,4H)-dione] | 100% | > 50 µM | – |
| 38.5 ± 1.38 µM | 18.7 ± 0.83 µM | Nc1ccc2c(c1)CC(=O)N(C1CCC(=O)NC1=O)C2=O (stereo not shown) [Compound 10c, 6-Amino-2–(2,6-dioxopiperidin-3-yl)isoquinoline-1,3(2H,4H)-dione] | 100% | 26.3 ± 0.76 µM | – |
| > 50 µM | > 50 µM | Nc1cccc2c1C(=O)N(C1CCC(=O)NC1=O)C(=O)C21CC1 (stereo not shown) [Compound 12b, 8′-Amino-2′-(2,6-dioxopiperidin-3-yl)-1′H-spiro[cyclopropane-1,4′-isoquinoline]-1′,3′(2′H)-dione] | 100% | > 50 µM | – |
